Each molecule was assayed against HCV NS5B polymerase (Hepatitis C virus genotype 1b, UniProt P26663) (assay: NS5B Polymerase Inhibition Assay). Conditions: 50 nM enzyme, [α-33P]GTP, oligo (rG13)/poly rC, 75 min at 28° C.
HCV NS5B polymerase, sequence (P26663 2420-3010): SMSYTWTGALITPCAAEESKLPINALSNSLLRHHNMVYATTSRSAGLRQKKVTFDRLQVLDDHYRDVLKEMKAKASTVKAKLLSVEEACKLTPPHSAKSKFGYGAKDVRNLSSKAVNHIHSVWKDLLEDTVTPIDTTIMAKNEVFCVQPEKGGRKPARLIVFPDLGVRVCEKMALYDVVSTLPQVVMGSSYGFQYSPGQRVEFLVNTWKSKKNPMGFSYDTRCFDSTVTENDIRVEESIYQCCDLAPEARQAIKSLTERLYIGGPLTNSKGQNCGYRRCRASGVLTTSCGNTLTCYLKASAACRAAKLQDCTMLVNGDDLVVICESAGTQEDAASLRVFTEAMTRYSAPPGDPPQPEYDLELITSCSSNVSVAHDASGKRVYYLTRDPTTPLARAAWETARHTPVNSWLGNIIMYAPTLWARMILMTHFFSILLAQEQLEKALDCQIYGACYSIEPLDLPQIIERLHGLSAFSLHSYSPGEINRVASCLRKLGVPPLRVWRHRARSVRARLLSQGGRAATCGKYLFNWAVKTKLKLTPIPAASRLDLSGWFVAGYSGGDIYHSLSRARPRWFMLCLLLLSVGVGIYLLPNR
Assay type: biochemical
Protocol: NS5B Polymerase Inhibition Assay
Compounds were tested for HCV polymerase inhibition. Assays were performed in a 96-well streptavidin-coated FlashPlate using 50 nM enzyme, 0.5 μCi of [α-^33P]GTP, 0.63 μM GTP, and 250 nM 5′biotinylated oligo (rG13)/poly rC in 20 mM Tris-HCl, pH 7.5, 5 mM MgCl2, 20 mM NaCl, 5 mM dithiothreitol, and 0.1 g/L BSA. The reaction was stopped by aspiration after 75 min at 28° C. and the plate was washed several times. After washing, incorporated radioactivity was counted using a Microbeta scintillation counter.
For `COc1ccc2c(c1)S(=O)(=O)NC(c1c(O)c(C(C)(C)C)nn(CCC(C)(C)C)c1=O)=N2` [Compound 66, 6-tert-Butyl-2-(3,3-dimethyl-butyl)-5-hydroxy-4-(7-methoxy-1,1-di-oxo-1,2-dihydro-1λ^6-benzo[1,2,4]thiadiazin-3-yl)-2H-py-ridazin-3-one], the IC50 was 10 to 50 µM.
Molecule `CCCCn1nc(CCC(C)C)c(O)c(C2=Nc3ccc(O)cc3S(=O)(=O)N2)c1=O` [Compound 38, 2-Butyl-5-hydroxy-4-(7-hydroxy-1,1-dioxo-1,2-dihydro-1λ^6-ben-zo[1,2,4]thiadiazin-3-yl)-6-(3-methyl-butyl)-2H-pyridazin-3-one] has an IC50 of under 10 µM.
`CCCCn1nc(C(C)(C)CO)c(O)c(C2=Nc3ccc(OC)cc3S(=O)(=O)N2)c1=O` [Compound 14, 2-Butyl-5-hydroxy-6-(2-hydroxy-1,1-dimethyl-ethyl)-4-(7-meth-oxy-1,1-dioxo-1,2-dihydro-1λ^6-benzo[1,2,4]thiadiazin-3-yl)-2H-py-ridazin-3-one] gave an IC50 of 10 to 50 µM.
`CC(C)CCn1nc(-c2cccs2)c(O)c(C2=Nc3ccncc3S(=O)(=O)N2)c1=O` [Compound 30, 4-(1,1-Dioxo-1,2-dihydro-1λ^6-pyrido[4,3-e][1,2,4]thiadiazin-3-yl)-5-hy-droxy-2-(3-methyl-butyl)-6-thiophen-2-yl-2H-py-ridazin-3-one] gave an IC50 of under 10 µM.
With `CCCc1nn(CCC(C)C)c(=O)c(C2=Nc3ccc(O)cc3S(=O)(=O)N2)c1O` [Compound 46, 5-Hydroxy-4-(7-hydroxy-1,1-dioxo-1,2-dihydro-1λ^6-ben-zo[1,2,4]thiadiazin-3-yl)-2-(3-methyl-butyl)-6-propyl-2H-py-ridazin-3-one] the IC50 was under 10 µM.
In the case of `CCCCn1nc(C(C)C)c(O)c(C2=Nc3ccc(OCC(N)=O)cc3S(=O)(=O)N2)c1=O` [Compound 12, 2-[3-(2-Butyl-5-hydroxy-6-isopropyl-3-oxo-2,3-dihydro-py-ridazin-4-yl)-1,1-dioxo-1,2-dihdyro-1λ^6-ben-zo[1,2,4]thiadiazin-7-yloxy]-actamide], the IC50 is reported as under 10 µM.
In the case of `O=c1c(C2=Nc3ccc(O)cc3S(=O)(=O)N2)c(O)c(-c2cccs2)nn1Cc1c(F)cccc1Cl` [Compound 19, 2-(2-Chloro-6-fluoro-benzyl)-5-hydroxy-4-(7-hydroxy-1,1-di-oxo-1,2-dihydro-1λ^6-benzo[1,2,4]thiadiazin-3-yl)-6-thio-phen-2-yl-2H-pyridazin-3-one], the IC50 is reported as 10 to 50 µM.
Work on `CCCCn1nc(C(C)C)c(O)c(C2=Nc3ccc(O)cc3S(=O)(=O)N2)c1=O` [Compound 11, 2-Butyl-5-hydroxy-4-(7-hydroxy-1,1-dioxo-1,2-dihydro-1λ^6-ben-zo[1,2,4]thiadiazin-3-yl)-6-isopropyl-2H-pyridazin-3-one] yielded an IC50 of under 10 µM.
`O=c1c(C2=Nc3ccc(O)cc3S(=O)(=O)N2)c(O)c(-c2cccs2)nn1Cc1ccccc1` [Compound 6, 2-Benzyl-5-hydroxy-4-(7-hydroxy-1,1-dioxo-1,2-dihydro-1λ^6-ben-zo[1,2,4]thiadiazin-3-yl)-6-thiophen-2-yl-2H-pyridazin-3-one] was tested, and the IC50 was under 10 µM.
With `COc1ccc2c(c1)S(=O)(=O)NC(c1c(O)c(-c3cccs3)nn(Cc3ccccc3)c1=O)=N2` [Compound 5, 2-Benzyl-5-hydroxy-4-(7-methoxy-1,1-dioxo-1,2-dihydro-1λ^6-ben-zo[1,2,4]thiadiazin-3-yl)-6-thiophen-2-yl-2H-py-ridazin-3-one] the IC50 was 10 to 50 µM.
`COc1ccc2c(c1)S(=O)(=O)NC(c1c(O)c(CCC#N)nn(CCC(C)(C)C)c1=O)=N2` [Compound 58, 3-[1-(3,3-Dimethyl-butyl)-4-hydroxy-5-(7-methoxy-1,1-dioxo-1,2-di-hydro-1λ^6-benzo[1,2,4]thiadiazin-3-yl)-6-oxo-1,6-di-hydro-pyridazin-3-yl]-propionitrile] gave an IC50 of 10 to 50 µM.
In the case of `COc1ccc2c(c1)S(=O)(=O)NC(c1c(O)c(-c3nccs3)nn(CCC(C)C)c1=O)=N2` [Compound 54, 5-Hydroxy-4-(7-methoxy-1,1-dioxo-1,2-dihydro-1λ^6-ben-zo[1,2,4]thiadiazin-3-yl)-2-(3-methyl-butyl)-6-thiazol-2-yl-2H-py-ridazin-3-one], the IC50 is reported as under 10 µM.
Work on `CC(C)c1nn(CCC(C)(C)C)c(=O)c(C2=Nc3ccccc3S(=O)(=O)N2)c1O` [Compound 53, 2-(3,3-Dimethyl-butyl)-4-(1,1-dioxo-1,2-dihydro-1λ^6-ben-zo[1,2,4]thiadiazin-3-yl)-5-hydroxy-6-isopropyl-2H-py-ridazin-3-one] yielded an IC50 of under 10 µM.
Work on `Cc1ccc(-c2nn(Cc3ccccc3)c(=O)c(C3=Nc4ccccc4S(=O)(=O)N3)c2O)s1` [Compound 59, 2-Benzyl-4-(1,1-dioxo-1,2-dihydro-1λ^6-ben-zo[1,2,4]thiadiazin-3-yl)-5-hydroxy-6-(5-methyl-thiophen-2-yl)-2H-py-ridazin-3-one] yielded an IC50 of under 10 µM.
For `CCCCc1nn(CCCC)c(=O)c(C2=Nc3ccc(O)cc3S(=O)(=O)N2)c1O` [Compound 45, 2,6-Dibutyl-5-hydroxy-4-(7-hydroxy-1,1-dioxo-1,2-dihydro-1λ^6-ben-zo[1,2,4]thiadiazin-3-yl)-2H-pyridazin-3-one], the IC50 was under 10 µM.
For `CC(C)CCn1nc(C(C)C)c(O)c(C2=Nc3ccc(O)cc3S(=O)(=O)N2)c1=O` [Compound 29, 5-Hydroxy-4-(7-hydroxy-1,1-dioxo-1,2-dihydro-1λ^6-ben-zo[1,2,4]thiadiazin-3-yl)-6-isopropyl-2-(3-methyl-butyl)-2H-py-ridazin-3-one], the IC50 was 10 to 50 µM.
In the case of `CCCCc1nn(CCC(C)C)c(=O)c(C2=Nc3ccc(O)cc3S(=O)(=O)N2)c1O` [Compound 36, 6-Butyl-5-hydroxy-4-(7-hydroxy-1,1-dioxo-1,2-dihydro-1λ^6-ben-zo[1,2,4]thiadiazin-3-yl)-2-(3-methyl-butyl)-2H-pyridazin-3-one], the IC50 is reported as under 10 µM.
For `COc1ccc2c(c1)S(=O)(=O)NC(c1c(O)c(C(C)C)nn(CCC(C)C)c1=O)=N2` [Compound 26, 5-Hydroxy-6-isopropyl-4-(7-methoxy-1,1-dioxo-1,2-dihydro-1λ^6-ben-zo[1,2,4]thiadiazin-3-yl)-2-(3-methyl-butyl)-2H-py-ridazin-3-one], the IC50 was 10 to 50 µM.
